What was measured:
[1] = tested on: HCT-116 (Human colon cancer) cells; assay: Inhibition of cancer growth in vivo, cancer tissue size for 15 days; design: species or system BALB/c mice; conditions: intravenous, 2 mg/ml based on doxorubicin
Experimental: After that, the size of the cancer tissue was measured for 15 days to confirm the anticancer effect.

[2] = tested on: HCT-116 (human colon cancer); assay: Cancer cell killing, MTT assay at pH 7.4 and pH 6.5; format: cell-based; conditions: regardless of pH (7.4, 6.5)
Experimental: (§1) In order to confirm the cancer cell killing effect of the CA and API-based pH-sensitive carbon nanoparticle drug carrier encapsulated with doxorubicin prepared in Example 4, HCT-116 (human colon cancer), SKBR-3 (human breast cancer), PANC-1 (human pancreas cancer) cells were used. The pH-sensitive carbon nanoparticle drug carrier was treated by concentration of doxorubicin in culture solutions of pH 7.4 and pH 6.5, respectively, and the comparison group was comparatively evaluated by treating doxorubicin alone by concentration. Cell death was performed using the MTT assay, and analyzed at 490 nm using a microplate reader.

[3] = tested on: PANC-1 (human pancreas cancer); assay: as above; format: cell-based; conditions: regardless of pH (7.4, 6.5)
Experimental: as §1

[4] = tested on: SKBR-3 (human breast cancer); assay: as above; format: cell-based; conditions: regardless of pH (7.4, 6.5)
Experimental: as §1

[5] = cited from earlier work
[6] = Active oxygen generation, singlet oxygen sensor green (SOSG), 670 nm laser; conditions: for singlet oxygen generation: 670 nm laser, 20 mW/cm^2
Experimental: A singlet oxygen sensor green (SOSG) capable of detecting singlet oxygen was used to confirm the generation of active oxygen in particles of a pH-sensitive photodynamic therapeutic agent prepared in the above Example 5.
Specifically, 1 ml of a solution in which SOSG was dissolved and 1 ml of a solution in which a pH-sensitive carbon nanoparticle-based photodynamic therapeutic agent was dissolved were mixed, and a 670 nm laser was irradiated. The laser was irradiated with an energy of 20 mW/cm^2, and the fluorescence intensity was measured using a fluorescence spectrophotometer every 10 seconds (0.2 J/cm^2) to confirm the generation of active oxygen. In addition, in order to measure the efficiency of generating reactive oxygen species according to pH, 1 ml of a solution in which a pH-sensitive photodynamic therapeutic agent having pH 7.4, the pH in vivo and a pH of 6.5 in a cancer environment, was dissolved and 1 ml of a SOSG solution were mixed, and a 670 nm laser is irradiated. The laser was irradiated with an energy of 50 mW/cm^2, and the fluorescence intensity was measured using a fluorescence spectrophotometer every 10 seconds (0.5 J/cm^2) to confirm the generation of active oxygen species.

[7] = tested on: CT-26 (Mouse colon cancer) cells; assay: Photodynamic cancer cell killing at pH 6.5, MTT assay; conditions: pH 6.5, 1 μg/ml based on chlorine e6, 670 nm laser irradiated (+), 2 J/cm^2
Experimental: In order to confirm the cancer cell killing effect of the pH-sensitive photodynamic therapeutic agent prepared in the above Example 5 at a cancer environment pH of 6.5, CT-26 (Mouse colon cancer) cells were used. Samples of the pH-sensitive carbon nanoparticle-based photodynamic therapeutic agent and chlorine e6 alone as other comparative group and carbon nanoparticles without pH sensitivity (Comparative Example 1) were treated with 1 μg/ml based on the concentration of chlorine e6 in the pH 6.5 culture medium, equally and a 670 nm laser was irradiated thereto. The laser was irradiated for […] (2 J/cm^2) with an energy of 50 mW/cm^2. Cell death was performed using the MTT assay, and analyzed at 570 nm using a microplate reader.

[8] = tested on: CT-26 (Mouse colon cancer) cells; assay: Intracellular influx according to pH, confocal microscopy; format: cell-based; conditions: pH 7.4, 4 hours
Experimental: In order to confirm the influx effect into cancer cells at pH 7.4 and pH 6.5 using the pH-sensitive photodynamic therapeutic agent prepared in the above Example 5, CT-26 (Mouse colon cancer) cells were used. The pH-sensitive carbon nanoparticle-based photodynamic therapeutic agent was treated for 4 hours in the culture solutions of pH 7.4 and pH 6.5, respectively, and chlorine e6 was treated alone as a control group for comparative evaluation. The intracellular influx was analyzed by fluorescence (460, 665 nm) of carbon nanoparticles and chlorine e6 using confocal microscopy.

[9] = tested on: CT-26 (Mouse colon cancer) cells; assay: In vivo behavior, in vivo fluorescence imaging for 24 hours; design: species or system BALB/c nude mice; conditions: intravenous, 0.4 mg/ml based on chlorine e6, 24 hours
Experimental: In order to confirm the in vivo behavior of the pH-sensitive photodynamic therapeutic agent prepared in the above Example 5, CT-26 (Mouse colon cancer) cells were inoculated into BALB/c nude mice. When the size of the cancer tissue reaches about 50-100 mm^3, a pH-sensitive photodynamic therapeutic agent (Ce6@CDs) and chlorine e6 alone formulation (Free Ce6) as a comparative group were injected intravenously at 0.4 mg/ml based on chlorine e6, and for 24 hours after then, the in vivo behavior was confirmed using in vivo fluorescence imaging (fluorescence-labeled bioimaging instrument) hourly.

[10] = tested on: CT-26 (Mouse colon cancer) cells; assay: In vivo photodynamic anticancer and immune anticancer effect, both cancer tissues for 15 days; design: species or system BALB/c mice; conditions: 0.4 mg/ml based on chlorine e6 i.v.
Excerpt: In order to confirm the anticancer effect in vivo and the anticancer effect due to photodynamic-based immunity induction of the pH-sensitive photodynamic therapeutic agent prepared in the above Example 5, CT-26 (Mouse colon cancer) cells were inoculated subcutaneously in the left leg of BALB/c mice (1×10^6 cells) and the right leg (5×10^5 cells). When the size of the cancer tissue reaches about 50 mm^3, a pH-sensitive photodynamic therapeutic agent, chlorine e6 alone formulation as a comparative group, pH-sensitive carbon nanoparticles without drug encapsulation, and PBS were injected intravenously at 0.4 mg/ml based on chlorine e6, and after 24 hours after intravenous injection, only the left cancer tissue was irradiated with a laser. This was repeated twice, and the laser was irradiated for 1000 seconds (100 J/cm^2) with an energy of 100 mW/cm^2. By measuring the size of both cancer tissues for 15 days, the photodynamic anticancer effect and the resulting immune anti-cancer effect were confirmed.

For `COc1cccc2c1C(=O)c1c(O)c3c(c(O)c1C2=O)C[C@@](O)(C(=O)CO)C[C@@H]3O[C@H]1C[C@H](N)[C@H](O)[C@H](C)O1` [Free DOX, doxorubicin], the “cancer growth in vivo” value [1] was “cancer continued to grow”, the “concentration at which cells died” value [2] was “about 50 ug/ml” and the “concentration at which cells died” value [3] was “about 50 ug/ml”. For the same compound, the “concentration at which cells died” value [4] was “about 50 ug/ml”.

For `NCCCn1ccnc1` [API, 1-(3-aminopropyl) imidazole], the pKa value [5] is listed as 6.9.

With pheophorbide a [Pheo A] the singlet oxygen generation [6] was “hardly produce singlet oxygen”.

With `C=Cc1c(C)c2cc3nc(c(CC(=O)O)c4[nH]c(cc5nc(cc1[nH]2)C(C)=C5CC)c(C)c4C(=O)O)[C@@H](CCC(=O)O)[C@@H]3C` [Free Ce6, chlorine e6] the cell death rate [7] was 50%, the “degree of influx into cells” value [8] was “similar” and the “in vivo fluorescence behavior” value [9] was “fluorescence quickly disappeared”. For the same compound, the singlet oxygen generation [6] was “hardly produce singlet oxygen”, the “singlet oxygen generation according to pH” value ([6]; pH 7.4 and pH 6.5, 670 nm laser, 50 mW/cm^2) was “hardly generated singlet oxygen” and the “cancer growth regardless of laser irradiation” value [10] was “cancer rapidly grows”.
